Active and inactive are the calls of the source. The calls are words filed in the database; no cut-off is given here.
Tests used:
Rattus norvegicus [1] = assay: Protection against OVX-induced osteoporosis in osteoporosis rat model assessed as increase in bone mineral density of femur at 220 mg/kg/day after 3 months by dual X-ray absorptiometry; type: functional, organism-based
Rattus norvegicus [2] = assay: Protection against OVX-induced oxidative stress in osteoporosis rat model assessed as decrease in H2O2 level in serum at 220 mg/kg/day after 3 months by colorimetric assay; type: functional, organism-based
Rattus norvegicus [3] = assay: Protection against OVX-induced oxidative stress in osteoporosis rat model assessed as […] level in serum at 220 mg/kg/day after 3 months by colorimetric assay; type: functional, organism-based
[4] = Induction of Wnt/beta-catenin signaling pathway in […] cells assessed as protection against H2O2-induced oxidative stress in presence of Wnt/beta-catenin signaling pathway inhibitor XAV-939; type: cell-based
MC3T3-E1 [5] = assay: Increase in cell viability of […] cells at 1 mM after 48 hrs by MTT assay; type: functional, cell-based
Rattus norvegicus [6] = species: Rattus norvegicus; assay: Cytotoxicity against […] cells assessed as effect on cell number at 2 mM after 48 hrs by MTT assay; type: toxicity, cell-based; conditions: mc3t3-e1, 48 h, 2000 µM
[7] = Induction of Wnt/beta-catenin signaling pathway in […] cells assessed as protection against H2O2-induced cell death at 0.5 to 2 mM pretreated with compound for 48 hrs followed by H2O2 treatment for 24 hrs by MTT assay; type: cell-based
[8] = Induction of Wnt/beta-catenin signaling pathway in […] cells assessed as protection against H2O2-induced cell death at 2 mM pretreated with compound for 48 hrs followed by H2O2 treatment for 24 hrs by MTT assay; type: cell-based
[9] = Induction of Wnt/beta-catenin signaling pathway in […] cells assessed as protection against H2O2-induced oxidative stress by measuring increase in ALP activity at 0.5 to 2 mM pretreated with compound for 48 hrs followed by H2O2 treatment for 24 hrs; type: cell-based
[10] = Induction of Wnt/beta-catenin signaling pathway in […] cells assessed as protection against H2O2-induced oxidative stress by measuring increase in ALP activity at 2 mM pretreated with compound for 48 hrs followed by H2O2 treatment for 24 hrs; type: cell-based
[11] = (§1) Induction of Wnt/beta-catenin signaling pathway in […] cells assessed as protection against H2O2-induced oxidative stress by measuring increase in mineralization at 0.5 to 2 mM pretreated with compound for 48 hrs followed by H2O2 treatment for 24 hrs; type: cell-based
[12] = Induction of Wnt/beta-catenin signaling pathway in […] cells assessed as protection against H2O2-induced oxidative stress by measuring increase in mineralization at 2 mM pretreated with compound for 48 hrs followed by H2O2 treatment for 24 hrs; type: cell-based
[13] = as §1, with “increase in onc mRNA expression at 0.5” for “increase in mineralization at 0.5”, “24 hrs by immunofluorescence staining method” for “24 hrs”; type: cell-based
[14] = Induction of Wnt/beta-catenin signaling pathway in […] cells assessed as protection against H2O2-induced oxidative stress by measuring increase in onc mRNA expression at 2 mM pretreated with compound for 48 hrs followed by H2O2 treatment for 24 hrs by immunofluorescence staining method; type: cell-based
[15] = (§2) Induction of Wnt/beta-catenin signaling pathway in […] cells assessed as protection against H2O2-induced oxidative stress by measuring Runx2 activation at 0.5 to 2 mM pretreated with compound for 48 hrs followed by H2O2 treatment for 24 hrs by Western blot analysis; type: cell-based
MC3T3-E1 [16] = assay: Protection against H2O2-induced apoptosis in […] cells assessed as decrease in nuclear condensation pretreated with compound for 48 hrs followed by H2O2 treatment for 24 hrs by DAPI staining based confocal laser scanning microscopy; type: functional, cell-based
MC3T3-E1 [17] = assay: Protection against H2O2-induced apoptosis in rat MC3T3-E1 cells assessed as decrease in nuclear fragmentation pretreated with compound for 48 hrs followed by H2O2 treatment for 24 hrs by DAPI staining based confocal laser scanning microscopy; type: functional, cell-based
MC3T3-E1 [18] = assay: Protection against H2O2-induced apoptosis in rat MC3T3-E1 cells assessed as inhibition of caspase 3 activation using Ac-DEVD-pNA as substrate pretreated with compound for 48 hrs followed by H2O2 treatment for 24 hrs; type: functional, cell-based
MC3T3-E1 [19] = assay: Protection against H2O2-induced apoptosis in rat MC3T3-E1 cells assessed as inhibition of caspase 3 mRNA level pretreated with compound for 48 hrs followed by H2O2 treatment for 24 hrs by quantitative real-time PCR method; type: functional, cell-based
[20] = as §2, with “decrease in phosphorylated beta-catenin expression” for “Runx2 activation”; type: cell-based
[21] = as §2, with “decrease in phosphorylated beta-catenin expression” for “Runx2 activation”, “1.5” for “0.5 to 2”; type: cell-based
[22] = Induction of Wnt/beta-catenin signaling pathway in […] cells assessed as protection against H2O2-induced oxidative stress by measuring OPG activation at 0.5 to 2 mM pretreated with compound for 48 hrs followed by H2O2 treatment for 24 hrs by Western blot analysis; type: cell-based
[23] = Induction of Wnt/beta-catenin signaling pathway in […] cells assessed as protection against H2O2-induced oxidative stress by measuring ALP activation at 0.5 to 2 mM pretreated with compound for 48 hrs followed by H2O2 treatment for 24 hrs by Western blot analysis; type: cell-based
Rattus norvegicus [24] = species: Rattus norvegicus; assay: Cytotoxicity against […] cells assessed as effect on cell number at 1 mM after 48 hrs by MTT assay; type: toxicity, cell-based; conditions: mc3t3-e1, 48 h, 1000 µM

With O.O.O.O.O.O.O.O.O=P([O-])([O-])OCC1(O)O[C@H](COP(=O)([O-])O)[C@@H](O)[C@@H]1O.[Na+].[Na+].[Na+] (some centres undefined) [FOSFRUCTOSE TRISODIUM] the Activity (Rattus norvegicus [1]) was “Active”, the Activity (Rattus norvegicus [2]) was “Active” and the Activity (Rattus norvegicus [3]) was “Active”. The Activity [4] was “Active”, the Activity (MC3T3-E1 [5]) was “Active” and the Activity (Rattus norvegicus [6]) was “Non-Toxic”. The Activity [7] was “Active”, the Activity [8] was “Active” and the Activity [9] was “Active”. The Activity [10] was “Active”, the Activity [11] was “Active” and the Activity [12] was “Active”. The Activity [13] was “Active”, the Activity [14] was “Active” and the Activity [15] was “Active”. The Activity (MC3T3-E1 [16]) was “Active”, the Activity (MC3T3-E1 [17]) was “Active” and the Activity (MC3T3-E1 [18]) was “Active”. The Activity (MC3T3-E1 [19]) was “Active”, the Activity [20] was “Active” and the Activity [21] was “Active”. The Activity [22] was “Active” and the Activity [23] was “Active”.
For CC(=O)N[C@@H](CS)C(=O)O [ACETYLCYSTEINE], the Activity (Rattus norvegicus [24]) was “Non-Toxic”.

From ChEMBL document CHEMBL3856247, “Wnt/β-catenin signaling plays an important role in the protective effects of FDP-Sr against oxidative stress induced apoptosis in MC3T3-E1 cell” (Bioorg Med Chem Lett, 2016)
